# Tested on: freeze-injured brain tissue
# Format: in vivo, rat
# Details: 6 days after freezing injury
# Description: The rats were anaesthetized by the inhalation of isofluorane, and had their heads shaved. The skin was cut open in the mid sagittal plane on the skull. The calvarium was exposed on the left side between the bregma and the lambda. The periostium was detached from the bone, which then was rinsed. Thereafter, great care was taken to remove blood and any fluid from the calvarium as that may impair the subsequent procedure. A probe made of brass, having a cylindric 4 mm long end piece with a diameter of 3 mm, was cooled by immersion in a standardized manner in liquid nitrogen. The cooled probe was thereafter applied for 40 s on the calvarium in between the lambda and bregma, 4 mm lateral to the sagittal mid line. The probe was then removed and the skin wound sutured. The application of the freezing probe resulted transiently in that the brain tissue underlying the exposure site turn frozen. It ought to be stressed that the skull was not opened and no fractures or other signs of gross damage induced. The animals moved afterwards without any obvious problems, behaved normally and ingested food and drinking fluid close to as those untreated, after having recovered from the anaesthesia. Rats (body weight 180-350 g at the start of the experiments), male and female, were supplied with standard pelleted food and tap water prior to and after the brain injury. At the day of injury, the rat were anaesthetized and prepared as described in experiment 2. The freezing probe was applied once for 40 seconds. After suturing the skin wound in the skull and recovered from the anaesthesia, the rats were allowed to move freely. All rats received twice daily for 5 days, starting on the day of surgery, an intravenous injection of 1-10 μg per kg body weight of a synthetic peptide, being a fragment of AF, comprising amino acids 36-51, i.e. composed of 16 amino acids. It was dissolved in saline and prepared freshly prior to each injection. There was no intravenous injection of the peptide on the day of sacrifice, day 6. […] Six days after the freezing injury, the rats were sacrificed and fixed by perfusion as described. […] There were no bleedings in or on the brain. […] The penumbra appeared to be affected by minor oedema. […] Irregularly distributed swellings and beadings of axons and dendrites were sparse. […] There was, however, a variation in the extent of the neuroprotection exerted by the injected peptide.
# [1] = peptide i.v. 1-10 μg per kg twice daily for 5 days
# [2] = peptide i.v. twice daily for 5 days, vs rats of experiment 2
substance,measurement,setting,value
"fragment of AF, comprising amino acids 36-51: synthetic peptide, being a fragment of AF, comprising amino acids 36-51, i.e. composed of 16 amino acids (VCHSKTRSNPENNVGL; listed as Homo sapiens)",bleedings in or on the brain,[1],no bleedings
same,oedema in the penumbra,[1],minor oedema
same,shallow depression of the central parts of the injured area,[1],not marked and in some cases difficult to identify for certain
same,extent of brain injury on opening the skull bone,"peptide i.v. 1-10 μg per kg twice daily for 5 days, vs standard pellets and tap water only",less extensive brain injury
same,irregularly distributed swellings and beadings of axons and dendrites,peptide i.v. twice daily for 5 days,sparse
same,proliferation of neural stem and progenitor cells in the SGZ,"peptide i.v. twice daily for 5 days, hippocampus",increased proliferation
same,occurrence of damaged cells (light microscopy of stained sections),[2],less extensive occurrence of damaged cells
same,residing extravasation of blood (light microscopy),[2],rarely any residing extravasation of blood
same,astrogliosis in the penumbra region,"peptide i.v. twice daily for 5 days, vs standard pellets and tap water only",not as extensive and wide-spread

# — US20070009575A1, “Novel use of antisecretory factor” (priority 2003, published 2007)
